From patent US9789089B2 (Gilead Sciences, Inc., priority 2013, dated 2017)
Like-named read-outs stand apart in the source and are kept apart here.

Assays:
[1] = tested on: HIV-IIIb; assay: Test A: Antiviral Assay in MT4 Cells; format: cell-based, HIV-1; conditions: read-out: % inhibition at 6 μM
Experimental: Test A: Antiviral Assay in MT4 Cells
(§1) For the antiviral assay, 40 μL of 1× test concentration of 3-fold serially diluted compound in culture medium with 10% FBS was added to each well of a 384-well plate (10 concentrations) in quadruplicate. MT-4 cells were next mixed with HIV-IIIb at an m.o.i of 0.003 for 1 hour, after which time 35 μL of virus/cell mixture (2000 cells) was immediately added to each well containing 40 μL of diluted compound. The plates were then incubated at 37° C. for 5 days. After 5 days of incubation, 25 μl of 2× concentrated CellTiter-Glo™ Reagent (catalog #G7571, Promega Biosciences, Inc., Madison, Wis.) was added to each well containing MT-4 cells. Cell lysis was carried out by incubating at room temperature for 10 min and then chemiluminescence was read.

[2] = Test B: Cytotoxicity assay; format: cell-based; conditions: human, uninfected MT-4 cells, same protocol as Test A, CellTiter-Glo
Experimental: as §1
Test B:Cytotoxicity assay
Compound cytotoxicity and the corresponding CC50 values was determined using the same protocol as described in the antiviral assay (Test A) except that uninfected cells were used.

[3] = Human immunodeficiency virus 1, MT4, 120 h, percent inhibition of virus-induced cell killing at 6 μM drug concentration, from the dose response curve, MT-4 cells infected with HIV-IIIb, 5 days
[4] = Human immunodeficiency virus 1, IIIB, MT4, 120 h

SMILES	inhibition at 6 µM [1, 3] [%]	CC50 at 5 days [2] [µM]	inhibition at 6 µM [1, 4] [%]
Cc1nnc(C(Cc2ccccc2)NC(=O)Cn2nc(C(F)(F)F)c3c2CCCC3)n1-c1ccccc1 (stereo not drawn) [Compound 11, N-(1-(5-methyl-4-phenyl-4H-1,2,4-triazol-3-yl)-2-phenylethyl)-2-(3-(trifluoromethyl)-4,5,6,7-tetrahydro-1H-indazol-1-yl)acetamide]	76	> 53	
O=C(Cc1c[nH]c2ccc(F)cc12)NC(Cc1cc(F)cc(F)c1)c1ncoc1-c1ccc(Cl)cc1 (stereo not drawn) [Compound 37, N-(1-(5-(4-chlorophenyl)oxazol-4-yl)-2-(3,5-difluorophenyl)ethyl)-2-(5-fluoro-1H-indol-3-yl)acetamide]	0	10.2	
COc1ccccc1Cn1ccnc1[C@H](Cc1ccccc1)NC(=O)Cc1c[nH]c2ccc(O)cc12 [Compound 3C, (S)-2-(5-hydroxy-1H-indol-3-yl)-N-(1-(1-(2-methoxybenzyl)-1H-imidazol-2-yl)-2-phenylethyl)acetamide]		37.1	19
Cc1cc2ncn(CC(=O)NC(Cc3cc(F)cc(F)c3)c3ncoc3-c3ccc(Cl)cc3)c2cc1C (stereo not drawn) [Compound 33H, N-(1-(5-(4-chlorophenyl)oxazol-4-yl)-2-(3,5-difluorophenyl)ethyl)-2-(5,6-dimethyl-1H-benzo[d]imidazol-1-yl)acetamide]		31.8	
CC(C)CCn1ccnc1[C@H](Cc1ccccc1)NC(=O)Cn1nc(C(F)(F)F)c2c1CCCC2 [Compound 2, (S)—N-(1-(1-isopentyl-1H-imidazol-2-yl)-2-phenylethyl)-2-(3-(trifluoromethyl)-4,5,6,7-tetrahydro-1H-indazol-1-yl)acetamide]	6	27.8	
O=C(Cc1c[nH]c2ccc(O)cc12)N[C@@H](Cc1cc(F)cc(F)c1)c1nocc1-c1ccc(Cl)cc1 [Compound 26, (S)—N-(1-(4-(4-chlorophenyl)isoxazol-3-yl)-2-(3,5-difluorophenyl)ethyl)-2-(5-hydroxy-1H-indol-3-yl)acetamide]			106
Cc1ccccc1-c1scnc1C(Cc1cc(F)cc(F)c1)NC(=O)Cn1nc(C(F)(F)F)c2c1CCCC2 (stereo not drawn) [Compound 14, N-(2-(3,5-difluorophenyl)-1-(5-(o-tolyl)thiazol-4-yl)ethyl)-2-(3-(trifluoromethyl)-4,5,6,7-tetrahydro-1H-indazol-1-yl)acetamide]	60	11.3	
O=C(Cc1c[nH]c2ccc(O)nc12)NC(Cc1cc(F)cc(F)c1)c1ncoc1-c1ccc(Cl)cc1 (stereo not drawn) [Compound 38, N-(1-(5-(4-chlorophenyl)oxazol-4-yl)-2-(3,5-difluorophenyl)ethyl)-2-(5-hydroxy-1H-pyrrolo[3,2-b]pyridin-3-yl)acetamide]	0	19.1	
O=C(Cc1c[nH]c2ccc(O)cc12)N[C@H](Cc1cc(F)cc(F)c1)c1nocc1-c1ccc(Cl)cc1 [Compound 28B, (R)—N-(1-(4-(4-chlorophenyl)isoxazol-3-yl)-2-(3,5-difluorophenyl)ethyl)-2-(5-hydroxy-1H-indol-3-yl)acetamide]			3
O=C(Cc1c[nH]c2ccc(O)nc12)NC(Cc1cc(F)cc(F)c1)c1cnc(-c2ccc(Cl)cc2)o1 (stereo not drawn) [Compound 22, N-(1-(2-(4-chlorophenyl)oxazol-5-yl)-2-(3,5-difluorophenyl)ethyl)-2-(5-hydroxy-1H-pyrrolo[3,2-b]pyridin-3-yl)acetamide]	1	50.7	
COc1ccc(-n2ccnc2[C@H](Cc2cc(F)cc(F)c2)NC(=O)Cn2nc(C(F)(F)F)c3c2CCCC3)cc1 [Compound 5F, (S)—N-(2-(3,5-difluorophenyl)-1-(1-(4-methoxyphenyl)-1H-imidazol-2-yl)ethyl)-2-(3-(trifluoromethyl)-4,5,6,7-tetrahydro-1H-indazol-1-yl)acetamide]		13.5	79
COc1ccc(-n2ccnc2[C@H](Cc2cc(F)cc(F)c2)NC(=O)Cc2c[nH]c3ccc(O)cc23)cc1 [Compound 7, (S)—N-(2-(3,5-difluorophenyl)-1-(1-(4-methoxyphenyl)-1H-imidazol-2-yl)ethyl)-2-(5-hydroxy-1H-indol-3-yl)acetamide]			121
Cc1cc2ncn(CC(=O)NC(Cc3cc(F)cc(F)c3)c3cnc(-c4ccc(Cl)cc4)o3)c2cc1C (stereo not drawn) [Compound 23, N-(1-(2-(4-chlorophenyl)oxazol-5-yl)-2-(3,5-difluorophenyl)ethyl)-2-(5,6-dimethyl-1H-benzo[d]imidazol-1-yl)acetamide]		12	0
COc1ccc2[nH]cc(CC(=O)NC(Cc3cc(F)cc(F)c3)c3cnc(-c4ccc(Cl)cc4)o3)c2n1 (stereo not drawn) [Compound 21, N-(1-(2-(4-chlorophenyl)oxazol-5-yl)-2-(3,5-difluorophenyl)ethyl)-2-(5-methoxy-1H-pyrrolo[3,2-b]pyridin-3-yl)acetamide]	2	25.4	
Cn1cnc(C(Cc2cc(F)cc(F)c2)NC(=O)Cc2c[nH]c3ccc(C(F)(F)F)cc23)c1-c1ccc(Cl)cc1 (stereo not drawn) [Compound 32, N-(1-(5-(4-chlorophenyl)-1-methyl-1H-imidazol-4-yl)-2-(3,5-difluorophenyl)ethyl)-2-(5-(trifluoromethyl)-1H-indol-3-yl)acetamide]	0	11.9	
Cc1nc(-c2ccccc2)c([C@H](Cc2ccccc2)NC(=O)Cn2nc(C(F)(F)F)c3c2CCCC3)s1 [Compound 16, (S)—N-(1-(2-methyl-4-phenylthiazol-5-yl)-2-phenylethyl)-2-(3-(trifluoromethyl)-4,5,6,7-tetrahydro-1H-indazol-1-yl)acetamide]	0	51.9	
O=C(Cc1c[nH]c2ccc(O)cc12)NC(Cc1ccccc1)c1cnnn1-c1ccccc1 (stereo not drawn) [Compound 12, 2-(5-hydroxy-1H-indol-3-yl)-N-(2-phenyl-1-(1-phenyl-1H-1,2,3-triazol-5-yl)ethyl)acetamide]	4	> 53	
COc1ccc(-n2ccnc2[C@@H](Cc2cc(F)cc(F)c2)NC(=O)Cn2nc(C(F)(F)F)c3c2CCCC3)cc1 [Compound 6B, (R)—N-(2-(3,5-difluorophenyl)-1-(1-(4-methoxyphenyl)-1H-imidazol-2-yl)ethyl)-2-(3-(trifluoromethyl)-4,5,6,7-tetrahydro-1H-indazol-1-yl)acetamide]		12	4
O=C(Cc1c[nH]c2ccc(O)cc12)NC(Cc1cc(F)cc(F)c1)c1cnc(-c2ccc(Cl)cc2)o1 (stereo not drawn) [Compound 24, N-(1-(2-(4-chlorophenyl)oxazol-5-yl)-2-(3,5-difluorophenyl)ethyl)-2-(5-hydroxy-1H-indol-3-yl)acetamide]	5	13.6	
O=C(Cn1nc(C(F)(F)F)c2c1CCCC2)NC(Cc1cc(F)cc(F)c1)c1ncoc1-c1ccc(Cl)cc1 (stereo not drawn) [Compound 36, N-(1-(5-(4-chlorophenyl)oxazol-4-yl)-2-(3,5-difluorophenyl)ethyl)-2-(3-(trifluoromethyl)-4,5,6,7-tetrahydro-1H-indazol-1-yl)acetamide]		16.3	0
Cn1cnc(C(Cc2cc(F)cc(F)c2)NC(=O)Cn2nc(C(F)(F)F)c3c2CCCC3)c1-c1ccc(Cl)cc1 (stereo not drawn) [Compound 30, N-(1-(5-(4-chlorophenyl)-1-methyl-1H-imidazol-4-yl)-2-(3,5-difluorophenyl)ethyl)-2-(3-(trifluoromethyl)-4,5,6,7-tetrahydro-1H-indazol-1-yl)acetamide]	69	11	
O=C(Cn1nc(C(F)(F)F)c2c1CCCC2)NC(Cc1cc(F)cc(F)c1)c1cnc(-c2ccc(Cl)cc2)o1 (stereo not drawn) [Compound 20, N-(1-(2-(4-chlorophenyl)oxazol-5-yl)-2-(3,5-difluorophenyl)ethyl)-2-(3-(trifluoromethyl)-4,5,6,7-tetrahydro-1H-indazol-1-yl)acetamide]		12.2	1
O=C(Cc1c[nH]c2ccc(F)cc12)N[C@@H](Cc1cc(F)cc(F)c1)c1nnc(-c2ccccc2)o1 [Compound 17B, (S)—N-(2-(3,5-difluorophenyl)-1-(5-phenyl-1,3,4-oxadiazol-2-yl)ethyl)-2-(5-fluoro-1H-indol-3-yl)acetamide]		> 53	0
Cc1ccccc1-c1scnc1C(Cc1cc(F)cc(F)c1)NC(=O)Cc1c[nH]c2ccc(O)cc12 (stereo not drawn) [Compound 13E, N-(2-(3,5-difluorophenyl)-1-(5-(o-tolyl)thiazol-4-yl)ethyl)-2-(5-hydroxy-1H-indol-3-yl)acetamide]			93
COc1ccc(-n2ccnc2[C@@H](Cc2cc(F)cc(F)c2)NC(=O)Cc2c[nH]c3ccc(O)cc23)cc1 [Compound 8, (R)—N-(2-(3,5-difluorophenyl)-1-(1-(4-methoxyphenyl)-1H-imidazol-2-yl)ethyl)-2-(5-hydroxy-1H-indol-3-yl)acetamide]			6
Cn1cnc(C(Cc2cc(F)cc(F)c2)NC(=O)Cc2c[nH]c3ccc(O)cc23)c1-c1ccc(Cl)cc1 (stereo not drawn) [Compound 31, N-(1-(5-(4-chlorophenyl)-1-methyl-1H-imidazol-4-yl)-2-(3,5-difluorophenyl)ethyl)-2-(5-hydroxy-1H-indol-3-yl)acetamide]			75
